target: T1, hSERT (Homo sapiens, UniProt P31645); test: hSERT neurotransmitter uptake assay (3H-5-HT), Assay 2; type: cell-based; parameters: expressed in transfected cells; host or cells: HEK-293; conditions: serotonin reuptake inhibition, 3H-5-HT uptake, HEK-293 hSERT cells (values without asterisk); read-out: SERT pIC50 (converted)
Procedure: (§1) Cells were harvested by centrifugation at 1100 rpm for 5 minutes, washed once by resuspension in PBS, then centrifuged. The supernatant was discarded and the cell pellet resuspended, by gentle trituration, in room temperature Krebs-Ringer bicarbonate buffer containing HEPES (10 mM), CaCl2 (2.2 mM), ascorbic acid (200 μM) and pargyline (200 μM), pH 7.4.
(§2) Test compounds were incubated for 30 minutes at 37° C. with the respective cells, prior to addition of radiolabeled neurotransmitter, ^3H-5-HT (20 nM final concentration), ^3H-NE (50 nM final concentration) or ^3H-DA (100 nM final concentration).

T1 sequence (P31645 whole entry): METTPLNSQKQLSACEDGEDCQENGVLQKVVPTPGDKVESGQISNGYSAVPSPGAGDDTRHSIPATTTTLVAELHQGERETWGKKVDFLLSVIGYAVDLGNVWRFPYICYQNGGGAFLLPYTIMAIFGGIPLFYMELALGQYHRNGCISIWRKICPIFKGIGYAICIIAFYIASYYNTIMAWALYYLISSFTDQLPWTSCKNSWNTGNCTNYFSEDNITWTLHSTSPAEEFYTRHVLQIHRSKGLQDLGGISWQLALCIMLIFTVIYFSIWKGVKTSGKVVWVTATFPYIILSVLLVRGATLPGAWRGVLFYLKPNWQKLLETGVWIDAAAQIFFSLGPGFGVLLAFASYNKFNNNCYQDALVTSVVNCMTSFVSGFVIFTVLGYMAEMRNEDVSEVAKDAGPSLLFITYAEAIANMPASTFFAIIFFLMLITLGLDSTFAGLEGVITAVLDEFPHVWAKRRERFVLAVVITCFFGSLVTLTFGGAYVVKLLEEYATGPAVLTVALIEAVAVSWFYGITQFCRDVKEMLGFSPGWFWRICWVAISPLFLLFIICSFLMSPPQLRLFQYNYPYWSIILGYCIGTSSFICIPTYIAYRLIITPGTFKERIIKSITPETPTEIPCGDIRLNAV

Row | IC50 [nM] | SMILES
1 | ≤ 10 | CC[C@H](Oc1ccc(Cl)cc1Cl)[C@H]1CCNC1 [Example 1, (S)-3-[(S)-1-(2,4-Dichlorophenoxy)propyl]pyrrolidine]
2 | ≤ 100 | CC[C@H](Oc1cccc(Cl)c1)[C@H]1CCNC1 [Example 2-1, (S)-3-[(S)-1-(3-Chlorophenoxy)propyl]pyrrolidine]
3 | ≤ 10 | CC[C@H](Oc1ccc(Cl)cc1)[C@H]1CCNC1 [Example 2-2, (S)-3-[(S)-1-(4-Chlorophenoxy)propyl]pyrrolidine]
4 | ≤ 10 | CC[C@H](Oc1ccc(Cl)c(F)c1)[C@H]1CCNC1 [Example 2-5, (S)-3-[(S)-1-(4-Chloro-3-fluorophenoxy)propyl]pyrrolidine]
5 | ≤ 10 | CC[C@H](Oc1ccc(Cl)c(Cl)c1)[C@H]1CCNC1 [Example 2-7, (S)-3-[(S)-1-(3,4-Dichlorophenoxy)propyl]pyrrolidine]
6 | ≤ 10 | CC[C@H](Oc1ccc(Cl)c(C)c1)[C@H]1CCNC1 [Example 2-13, (S)-3-[(S)-1-(4-Chloro-3-methylphenoxy)propyl]pyrrolidine]
7 | ≤ 100 | CC[C@H](Oc1cc(Cl)cc(Cl)c1)[C@H]1CCNC1 [Example 2-18, (S)-3-[(S)-1-(3,5-Dichlorophenoxy)propyl]pyrrolidine]
8 | ≤ 100 | CC[C@@H](Oc1cc(Cl)cc(Cl)c1)[C@@H]1CCNC1 [Example 2-19, (R)-3-[(R)-1-(3,5-Dichlorophenoxy)propyl]pyrrolidine]
9 | ≤ 100 | CC[C@H](Oc1ccc(F)c(Cl)c1)[C@H]1CCNC1 [Example 2-21, (S)-3-[(S)-1-(3-Chloro-4-fluorophenoxy)propyl]pyrrolidine]
10 | ≤ 100 | CC[C@H](Oc1cc(F)c(OC)c(F)c1)[C@H]1CCNC1 [Example 2-22, (S)-3-[(S)-1-(3,5-Difluoro-4-methoxyphenoxy)propyl]pyrrolidine]
11 | ≤ 100 | CC[C@H](Oc1ccccc1Cl)[C@H]1CCNC1 [Example 2-23, (S)-3-[(S)-1-(2-Chlorophenoxy)propyl]pyrrolidine]
12 | ≤ 100 | CC[C@H](Oc1c(F)cccc1Cl)[C@H]1CCNC1 [Example 2-25, (S)-3-[(S)-1-(2-Chloro-6-fluorophenoxy)-propyl]pyrrolidine]
13 | ≤ 100 | CC[C@H](Oc1c(C)cccc1Cl)[C@H]1CCNC1 [Example 2-27, (S)-3-[(S)-1-(2-Chloro-6-methylphenoxy)propyl]pyrrolidine]
14 | ≤ 10 | CC[C@H](Oc1cccc(Cl)c1Cl)[C@H]1CCNC1 [Example 2-28, (S)-3-[(S)-1-(2,3-Dichlorophenoxy)propyl]pyrrolidine]
15 | ≤ 10 | CC[C@@H](Oc1cccc(Cl)c1Cl)[C@@H]1CCNC1 [Example 2-29, (R)-3-[(R)-1-(2,3-Dichlorophenoxy)propyl]pyrrolidine]
16 | ≤ 10 | CC[C@H](Oc1ccc(F)cc1Cl)[C@H]1CCNC1 [Example 2-32, (S)-3-[(S)-1-(2-Chloro-4-fluorophenoxy)propyl]pyrrolidine]
17 | ≤ 100 | CC[C@H](Oc1c(Cl)ccc(Cl)c1Cl)[C@H]1CCNC1 [Example 2-37, (S)-3-[(S)-1-(2,3,6-Trichlorophenoxy)propyl]pyrrolidine]
18 | ≤ 100 | CC[C@@H](Oc1c(Cl)ccc(Cl)c1Cl)[C@H]1CCNC1 [Example 2-38, (S)-3-[(R)-1-(2,3,6-Trichlorophenoxy)propyl]pyrrolidine]

target: T1, hSERT; test: hSERT membrane radioligand binding assay (3H-citalopram), Assay 1; conditions: SERT pKi, hSERT HEK-293 membranes, 1.0 nM 3H-citalopram; values given as lower bounds

Row | Ki [nM] | SMILES
19 | ≤ 10 | CC[C@H](Oc1ccc(Cl)cc1Cl)[C@H]1CCNC1 [Example 1, (S)-3-[(S)-1-(2,4-Dichlorophenoxy)propyl]pyrrolidine]
20 | ≤ 100 | CC[C@H](Oc1cccc(Cl)c1)[C@H]1CCNC1 [Example 2-1, (S)-3-[(S)-1-(3-Chlorophenoxy)propyl]pyrrolidine]
21 | ≤ 10 | CC[C@H](Oc1ccc(Cl)cc1)[C@H]1CCNC1 [Example 2-2, (S)-3-[(S)-1-(4-Chlorophenoxy)propyl]pyrrolidine]
22 | ≤ 10 | CC[C@H](Oc1ccc(Cl)c(F)c1)[C@H]1CCNC1 [Example 2-5, (S)-3-[(S)-1-(4-Chloro-3-fluorophenoxy)propyl]pyrrolidine]
23 | ≤ 10 | CC[C@H](Oc1ccc(Cl)c(Cl)c1)[C@H]1CCNC1 [Example 2-7, (S)-3-[(S)-1-(3,4-Dichlorophenoxy)propyl]pyrrolidine]
24 | ≤ 10 | CC[C@H](Oc1ccc(Cl)c(C)c1)[C@H]1CCNC1 [Example 2-13, (S)-3-[(S)-1-(4-Chloro-3-methylphenoxy)propyl]pyrrolidine]
25 | ≤ 10 | CC[C@H](Oc1cc(Cl)cc(Cl)c1)[C@H]1CCNC1 [Example 2-18, (S)-3-[(S)-1-(3,5-Dichlorophenoxy)propyl]pyrrolidine]
26 | ≤ 10 | CC[C@@H](Oc1cc(Cl)cc(Cl)c1)[C@@H]1CCNC1 [Example 2-19, (R)-3-[(R)-1-(3,5-Dichlorophenoxy)propyl]pyrrolidine]
27 | ≤ 10 | CC[C@H](Oc1ccc(F)c(Cl)c1)[C@H]1CCNC1 [Example 2-21, (S)-3-[(S)-1-(3-Chloro-4-fluorophenoxy)propyl]pyrrolidine]
28 | ≤ 10 | CC[C@H](Oc1cc(F)c(OC)c(F)c1)[C@H]1CCNC1 [Example 2-22, (S)-3-[(S)-1-(3,5-Difluoro-4-methoxyphenoxy)propyl]pyrrolidine]
29 | ≤ 10 | CC[C@H](Oc1ccccc1Cl)[C@H]1CCNC1 [Example 2-23, (S)-3-[(S)-1-(2-Chlorophenoxy)propyl]pyrrolidine]
30 | ≤ 10 | CC[C@H](Oc1c(F)cccc1Cl)[C@H]1CCNC1 [Example 2-25, (S)-3-[(S)-1-(2-Chloro-6-fluorophenoxy)-propyl]pyrrolidine]
31 | ≤ 10 | CC[C@H](Oc1c(C)cccc1Cl)[C@H]1CCNC1 [Example 2-27, (S)-3-[(S)-1-(2-Chloro-6-methylphenoxy)propyl]pyrrolidine]
32 | ≤ 10 | CC[C@H](Oc1cccc(Cl)c1Cl)[C@H]1CCNC1 [Example 2-28, (S)-3-[(S)-1-(2,3-Dichlorophenoxy)propyl]pyrrolidine]
33 | ≤ 10 | CC[C@@H](Oc1cccc(Cl)c1Cl)[C@@H]1CCNC1 [Example 2-29, (R)-3-[(R)-1-(2,3-Dichlorophenoxy)propyl]pyrrolidine]
34 | ≤ 10 | CC[C@H](Oc1ccc(F)cc1Cl)[C@H]1CCNC1 [Example 2-32, (S)-3-[(S)-1-(2-Chloro-4-fluorophenoxy)propyl]pyrrolidine]
35 | ≤ 10 | CC[C@H](Oc1c(Cl)ccc(Cl)c1Cl)[C@H]1CCNC1 [Example 2-37, (S)-3-[(S)-1-(2,3,6-Trichlorophenoxy)propyl]pyrrolidine]
36 | ≤ 10 | CC[C@@H](Oc1c(Cl)ccc(Cl)c1Cl)[C@H]1CCNC1 [Example 2-38, (S)-3-[(R)-1-(2,3,6-Trichlorophenoxy)propyl]pyrrolidine]

target: T2, hNET (Homo sapiens, UniProt P23975); test: hNET neurotransmitter uptake assay (3H-NE), Assay 2; type: cell-based; parameters: expressed in transfected cells; host or cells: HEK-293; conditions: norepinephrine reuptake inhibition, 3H-NE uptake, HEK-293 hNET cells (values without asterisk); read-out: NET pIC50 (converted)
T2 sequence (P23975 whole entry): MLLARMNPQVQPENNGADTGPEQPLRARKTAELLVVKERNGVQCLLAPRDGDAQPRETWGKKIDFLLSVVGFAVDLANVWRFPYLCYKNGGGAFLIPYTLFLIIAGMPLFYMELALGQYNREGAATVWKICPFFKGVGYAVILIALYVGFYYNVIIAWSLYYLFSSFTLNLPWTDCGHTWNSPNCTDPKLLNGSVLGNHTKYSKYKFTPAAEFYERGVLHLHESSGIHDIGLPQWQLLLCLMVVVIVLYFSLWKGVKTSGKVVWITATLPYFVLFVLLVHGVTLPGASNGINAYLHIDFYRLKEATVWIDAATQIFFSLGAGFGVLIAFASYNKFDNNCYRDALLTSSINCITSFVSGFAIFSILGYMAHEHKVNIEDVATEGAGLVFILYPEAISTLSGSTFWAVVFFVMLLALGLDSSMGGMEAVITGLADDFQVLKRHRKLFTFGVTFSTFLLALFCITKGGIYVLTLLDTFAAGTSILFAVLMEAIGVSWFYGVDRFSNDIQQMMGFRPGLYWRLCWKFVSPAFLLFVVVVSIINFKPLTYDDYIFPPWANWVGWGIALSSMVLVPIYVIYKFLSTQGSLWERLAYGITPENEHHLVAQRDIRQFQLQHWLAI
Procedure: as §1, §2

Row | IC50 [nM] | SMILES
37 | ≤ 10 | CC[C@H](Oc1ccc(Cl)cc1Cl)[C@H]1CCNC1 [Example 1, (S)-3-[(S)-1-(2,4-Dichlorophenoxy)propyl]pyrrolidine]
38 | ≤ 10 | CC[C@H](Oc1cccc(Cl)c1)[C@H]1CCNC1 [Example 2-1, (S)-3-[(S)-1-(3-Chlorophenoxy)propyl]pyrrolidine]
39 | ≤ 10 | CC[C@H](Oc1ccc(Cl)cc1)[C@H]1CCNC1 [Example 2-2, (S)-3-[(S)-1-(4-Chlorophenoxy)propyl]pyrrolidine]
40 | ≤ 10 | CC[C@H](Oc1ccc(Cl)c(F)c1)[C@H]1CCNC1 [Example 2-5, (S)-3-[(S)-1-(4-Chloro-3-fluorophenoxy)propyl]pyrrolidine]
41 | ≤ 10 | CC[C@H](Oc1ccc(Cl)c(Cl)c1)[C@H]1CCNC1 [Example 2-7, (S)-3-[(S)-1-(3,4-Dichlorophenoxy)propyl]pyrrolidine]
42 | ≤ 10 | CC[C@H](Oc1ccc(Cl)c(C)c1)[C@H]1CCNC1 [Example 2-13, (S)-3-[(S)-1-(4-Chloro-3-methylphenoxy)propyl]pyrrolidine]
43 | ≤ 100 | CC[C@H](Oc1cc(Cl)cc(Cl)c1)[C@H]1CCNC1 [Example 2-18, (S)-3-[(S)-1-(3,5-Dichlorophenoxy)propyl]pyrrolidine]
44 | ≤ 100 | CC[C@@H](Oc1cc(Cl)cc(Cl)c1)[C@@H]1CCNC1 [Example 2-19, (R)-3-[(R)-1-(3,5-Dichlorophenoxy)propyl]pyrrolidine]
45 | ≤ 10 | CC[C@H](Oc1ccc(F)c(Cl)c1)[C@H]1CCNC1 [Example 2-21, (S)-3-[(S)-1-(3-Chloro-4-fluorophenoxy)propyl]pyrrolidine]
46 | ≤ 10 | CC[C@H](Oc1cc(F)c(OC)c(F)c1)[C@H]1CCNC1 [Example 2-22, (S)-3-[(S)-1-(3,5-Difluoro-4-methoxyphenoxy)propyl]pyrrolidine]
47 | ≤ 10 | CC[C@H](Oc1ccccc1Cl)[C@H]1CCNC1 [Example 2-23, (S)-3-[(S)-1-(2-Chlorophenoxy)propyl]pyrrolidine]
48 | ≤ 10 | CC[C@H](Oc1c(F)cccc1Cl)[C@H]1CCNC1 [Example 2-25, (S)-3-[(S)-1-(2-Chloro-6-fluorophenoxy)-propyl]pyrrolidine]
49 | ≤ 10 | CC[C@H](Oc1c(C)cccc1Cl)[C@H]1CCNC1 [Example 2-27, (S)-3-[(S)-1-(2-Chloro-6-methylphenoxy)propyl]pyrrolidine]
50 | ≤ 10 | CC[C@H](Oc1cccc(Cl)c1Cl)[C@H]1CCNC1 [Example 2-28, (S)-3-[(S)-1-(2,3-Dichlorophenoxy)propyl]pyrrolidine]
51 | ≤ 10 | CC[C@@H](Oc1cccc(Cl)c1Cl)[C@@H]1CCNC1 [Example 2-29, (R)-3-[(R)-1-(2,3-Dichlorophenoxy)propyl]pyrrolidine]
52 | ≤ 10 | CC[C@H](Oc1ccc(F)cc1Cl)[C@H]1CCNC1 [Example 2-32, (S)-3-[(S)-1-(2-Chloro-4-fluorophenoxy)propyl]pyrrolidine]
53 | ≤ 10 | CC[C@H](Oc1c(Cl)ccc(Cl)c1Cl)[C@H]1CCNC1 [Example 2-37, (S)-3-[(S)-1-(2,3,6-Trichlorophenoxy)propyl]pyrrolidine]
54 | ≤ 10 | CC[C@@H](Oc1c(Cl)ccc(Cl)c1Cl)[C@H]1CCNC1 [Example 2-38, (S)-3-[(R)-1-(2,3,6-Trichlorophenoxy)propyl]pyrrolidine]

target: T2, hNET; test: hNET membrane radioligand binding assay (3H-nisoxetine), Assay 1; conditions: not given

Row | Ki [nM] | SMILES
55 | ≤ 10 | CC[C@H](Oc1ccc(Cl)cc1Cl)[C@H]1CCNC1 [Example 1, (S)-3-[(S)-1-(2,4-Dichlorophenoxy)propyl]pyrrolidine]
56 | ≤ 10 | CC[C@H](Oc1cccc(Cl)c1)[C@H]1CCNC1 [Example 2-1, (S)-3-[(S)-1-(3-Chlorophenoxy)propyl]pyrrolidine]
57 | ≤ 10 | CC[C@H](Oc1ccc(Cl)cc1)[C@H]1CCNC1 [Example 2-2, (S)-3-[(S)-1-(4-Chlorophenoxy)propyl]pyrrolidine]
58 | ≤ 10 | CC[C@H](Oc1ccc(Cl)c(F)c1)[C@H]1CCNC1 [Example 2-5, (S)-3-[(S)-1-(4-Chloro-3-fluorophenoxy)propyl]pyrrolidine]
59 | ≤ 10 | CC[C@H](Oc1ccc(Cl)c(Cl)c1)[C@H]1CCNC1 [Example 2-7, (S)-3-[(S)-1-(3,4-Dichlorophenoxy)propyl]pyrrolidine]
60 | ≤ 10 | CC[C@H](Oc1ccc(Cl)c(C)c1)[C@H]1CCNC1 [Example 2-13, (S)-3-[(S)-1-(4-Chloro-3-methylphenoxy)propyl]pyrrolidine]
61 | ≤ 100 | CC[C@H](Oc1cc(Cl)cc(Cl)c1)[C@H]1CCNC1 [Example 2-18, (S)-3-[(S)-1-(3,5-Dichlorophenoxy)propyl]pyrrolidine]
62 | ≤ 10 | CC[C@@H](Oc1cc(Cl)cc(Cl)c1)[C@@H]1CCNC1 [Example 2-19, (R)-3-[(R)-1-(3,5-Dichlorophenoxy)propyl]pyrrolidine]
63 | ≤ 10 | CC[C@H](Oc1ccc(F)c(Cl)c1)[C@H]1CCNC1 [Example 2-21, (S)-3-[(S)-1-(3-Chloro-4-fluorophenoxy)propyl]pyrrolidine]
64 | ≤ 10 | CC[C@H](Oc1cc(F)c(OC)c(F)c1)[C@H]1CCNC1 [Example 2-22, (S)-3-[(S)-1-(3,5-Difluoro-4-methoxyphenoxy)propyl]pyrrolidine]
65 | ≤ 10 | CC[C@H](Oc1ccccc1Cl)[C@H]1CCNC1 [Example 2-23, (S)-3-[(S)-1-(2-Chlorophenoxy)propyl]pyrrolidine]
66 | ≤ 10 | CC[C@H](Oc1c(F)cccc1Cl)[C@H]1CCNC1 [Example 2-25, (S)-3-[(S)-1-(2-Chloro-6-fluorophenoxy)-propyl]pyrrolidine]
67 | ≤ 10 | CC[C@H](Oc1c(C)cccc1Cl)[C@H]1CCNC1 [Example 2-27, (S)-3-[(S)-1-(2-Chloro-6-methylphenoxy)propyl]pyrrolidine]
68 | ≤ 10 | CC[C@H](Oc1cccc(Cl)c1Cl)[C@H]1CCNC1 [Example 2-28, (S)-3-[(S)-1-(2,3-Dichlorophenoxy)propyl]pyrrolidine]
69 | ≤ 10 | CC[C@@H](Oc1cccc(Cl)c1Cl)[C@@H]1CCNC1 [Example 2-29, (R)-3-[(R)-1-(2,3-Dichlorophenoxy)propyl]pyrrolidine]
70 | ≤ 10 | CC[C@H](Oc1ccc(F)cc1Cl)[C@H]1CCNC1 [Example 2-32, (S)-3-[(S)-1-(2-Chloro-4-fluorophenoxy)propyl]pyrrolidine]
71 | ≤ 10 | CC[C@H](Oc1c(Cl)ccc(Cl)c1Cl)[C@H]1CCNC1 [Example 2-37, (S)-3-[(S)-1-(2,3,6-Trichlorophenoxy)propyl]pyrrolidine]
72 | ≤ 10 | CC[C@@H](Oc1c(Cl)ccc(Cl)c1Cl)[C@H]1CCNC1 [Example 2-38, (S)-3-[(R)-1-(2,3,6-Trichlorophenoxy)propyl]pyrrolidine]

Reference: patent publication US7994209B2, “3-phenoxymethylpyrrolidine compounds” (Theravance, Inc., priority 2009, dated 2011)
